Results on 53 compounds are retold here after PubChem BioAssay AID449762 (Southern Research Specialized Biocontainment Screening …, 2010).

SMILES strings stand for the structures. Records with an inconclusive call do not appear.

The subject of this experiment is M. tuberculosis H37Rv growth inhibition, 7H9 media. The experiment is described as follows: M. tuberculosis growth inhibition, HTS (AID 449762).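 As to all read-outs here: bacterial growth assessed after seven days of incubation.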 Conditions: for IC90: measured here: IC90 growth inhibition.

One may read the IC50 as the concentration at which inhibition is half-maximal. The term IC90 denotes the point of the concentration-response curve where the effect stands at 90%. Regarding `CC(NCCCOc1cccc2ccccc12)c1ccccc1` (stereo not drawn), the IC50 was 22.6 µM and the IC90 was determined as 31.3 µM.
On the same counts, the results for `CCOc1ccc(NC(=S)Nc2ccc(C)c([N+](=O)[O-])c2)cc1` are 45 µM and above 100 µM.
Turning to `CCc1ccc(/C(C)=N/Nc2cc(Cl)nc(C)n2)cc1`, the IC50 is 41.9 µM and the IC90 was determined as 99 µM.
`COc1cc(NC(=O)c2cnc(N)s2)cc(C(=O)Nc2cccc(C(F)(F)F)c2)c1`: the IC50 was 52 µM and the IC90 was determined as 78.8 µM.
With `Cc1ccc(C2CC(c3cccs3)=NN2C(=O)CCl)cc1` (stereo not drawn), the IC50 is 0.39 µM and the IC90 came out at 1.39 µM.
Take `Cc1cc(N/N=C2/CCCc3ccccc32)nc2ccccc12`: the IC50 was 31.7 µM and the IC90 came out at 37.9 µM.
For `COc1ccc(C(=O)C[n+]2ccc3c(c2)nc(-c2cc(OC)c(OC)cc2OC)n3C)cc1` the same measures were 10.5 µM and 13.4 µM.
Consider `CN1CCN(CC(=O)N2CCn3c4c(c5cc(C6CCCCC6)ccc53)CCCC42)CC1` (stereo not drawn), for which the IC50 was 21.7 µM and the IC90 was determined as 23.6 µM.
On to `O=C1C2C(c3ccccc3)(C(=O)N1c1ccc(Cl)cc1)C2(c1ccccc1)c1ccccc1` (stereo not drawn), for which the IC50 was 11.5 µM and the IC90 was found to be 12.4 µM.
For `O=C(c1ccc([N+](=O)[O-])s1)N1CCN(c2ccc(C(F)(F)F)cn2)CC1`, the IC50 was below 0.2 µM and the IC90 is below 0.2 µM.
`COc1ccc(NC(=O)ON=C2c3ccccc3-c3ccccc32)cc1` gave an IC90 above 100 µM.
Regarding `Cc1ccc(C(=O)OCc2nnc(-c3ccccc3)o2)s1`, the IC50 is 19 µM and the IC90 was 33.5 µM.
As to `O=C1C(SCCO)=C(SCCO)C(=O)c2ccccc21`, the IC50 is 6.06 µM and the IC90 worked out at 6.83 µM.
In the case of `CCOc1ccc(NC(=O)c2sc3nc(C)nc(N4CCOCC4)c3c2C)cc1`, the IC50 is 35.6 µM and the IC90 is 61.3 µM.
The compound `COc1ccccc1/C=C/C1=NC(=C\C=C/c2ccccc2)/C(=O)O1` gave an IC90 above 100 µM.
Turning to `CC(=O)c1ccc(Sc2nnnn2-c2ccccc2)c([N+](=O)[O-])c1`, the IC50 was 4.48 µM and the IC90 amounted to 13.3 µM.
`CC(=O)c1ccc(N2CCC(c3cc(-c4ccc(Cl)cc4Cl)n[nH]3)CC2)c([N+](=O)[O-])c1`: the IC50 was 18.2 µM and the IC90 was 26.1 µM.
For `C=CCNC(=O)c1onc(CCl)c1C(=O)OC` the same measures were 1.66 µM and 5.93 µM.
For `N#C/C=C\Oc1ccc(Cl)cc1N` the same measures were 14 µM and 23.3 µM.
Turning to `CC1CC(C)CN(C(=O)C2CCC(CNc3c(N4CCCCC4)c(=O)c3=O)CC2)C1` (stereo not drawn), the IC50 was 19.3 µM and the IC90 was found to be 71.7 µM.
Consider `CCOc1ccc(/C=N/OCC(=O)Nc2cc(C)on2)cc1`, for which the IC50 is 29.4 µM and the IC90 was above 100 µM.
For `Cc1ccc(NC(=O)CSc2nc3ccccc3c(=O)n2CCCN2CCCCC2)cc1Cl`, the IC50 was 39 µM and the IC90 was determined as 55.5 µM.
Turning to `COc1cc(NC(=O)C/C(C)=N/NC(=O)c2ccccn2)c(OC)cc1Cl`, the IC50 is 3 µM and the IC90 was determined as 4.13 µM.
As for `Cn1cc(C(=O)c2ccc(Cl)cc2)cc1-c1nc2ccccc2n1C`, the IC50 was 13.4 µM and the IC90 was found to be 27.1 µM.
For the compound `Cc1ccc(N/C=C2\C(=O)C3(C)CCC2C3(C)C)cc1C` (stereo not drawn), the IC90 is above 100 µM.
Turning to `CCN(CC(=O)NCc1cccs1)C(=O)c1ccc([N+](=O)[O-])o1`, the IC50 is 19 µM and the IC90 came to 58.3 µM.
On the same counts, the results for `Cc1ccc(C2=NN(C)c3nc4ccccc4n3C2)cc1` are 20.4 µM and 78.3 µM.
Regarding `C[C@@H]1CCCCCCCCC(=O)OCCN[C@H](C)CCCCCCCCC(=O)OCCN[C@H](C)CCCCCCCCC(=O)OCCN1`, the concentration for half-maximal inhibition (IC50) is 25.2 µM and the IC90 is 29.4 µM.
On the same counts, the results for `Cc1ccc(OC(=O)c2oc3ccc(F)cc3c2C)c(C)c1` are 6.82 µM and 18.6 µM.
On the same counts, the results for `O=C(/C=C/c1ccco1)Oc1ccc(C(=S)N2CCOCC2)cc1` are 38.7 µM and above 100 µM.
As to `CC1(C)CC(=O)C2=C(C1)OC(N)=C([N+](=O)[O-])C2c1ccc(C#N)s1` (stereo not drawn), the IC50 is 62.2 µM and the IC90 was above 100 µM.
As for `CC1=NNC(=O)/C1=C\c1cn(-c2ccccc2)nc1-c1ccc(Cl)cc1`, the IC50 is 28.7 µM and the IC90 turned out to be 37.2 µM.
On to `Cc1ccc2nc(/C(C#N)=C/c3cn[nH]c3-c3ccc(F)cc3)[nH]c2c1`, for which the IC50 was 20.9 µM and the IC90 is above 100 µM.
As to `OC(CNCCc1ccc(C(F)(F)F)cc1)COC(c1ccccc1)c1ccccc1` (stereo not drawn), the IC50 was 16.7 µM and the IC90 stood at 21.2 µM.
In the case of `CC(OC(=O)COc1ccc(Nc2ccccc2)cc1)C(=O)N(C)c1ccccc1` (stereo not drawn), the IC50 is below 0.2 µM and the IC90 was 4.17 µM.
For `CC(C)NC(=O)c1onc(CSc2ccc(F)c(F)c2)c1C(=O)O` the same measures were 11 µM and 18.9 µM.
Regarding `CCOC(=O)c1ccc(-n2c(CCC(=O)O)ccc2-c2cccs2)cc1`, the IC50 was 9.13 µM and the IC90 is 14 µM.
As to `c1ccc(-c2nc(N3CCCC3)nc3ccccc23)cc1`, the IC50 was 37.5 µM and the IC90 stood at 51.8 µM.
`COc1ccc(Nc2nc(N3CCCCC3)nc3ccccc23)c(OC)c1`: the IC50 is 19.1 µM and the IC90 worked out at 26.5 µM.
Consider `c1ccc2nc(-c3ccc(-n4ccnc4)cc3)ccc2c1`, for which the IC50 was 23.5 µM and the IC90 came to 25.9 µM.
Turning to `c1ccc2c(c1)CCN(c1nc3cc4c(cc3s1)OCCO4)C2`, the IC50 was 7.45 µM and the IC90 came out at 16.9 µM.
As for `Cc1cc(C)n2nc(/C(C#N)=C/c3ccccn3)c(C#N)c2n1`, the IC50 was 0.97 µM and the IC90 was determined as 17.6 µM.
For the compound `O=C(CNC(=O)c1ccco1)OCc1ccc(C(=O)Oc2ccccc2)cc1`, the IC50 is 4.52 µM and the IC90 worked out at 16.2 µM.
With `Cc1ccc(NC(=O)CCl)cc1S(=O)(=O)N1CCCCCC1`, the IC50 is 2.6 µM and the IC90 came to 5.03 µM.
Turning to `O=C(OCc1ccc([N+](=O)[O-])cc1)c1cc2ccccc2oc1=O`, the IC50 is 7.82 µM and the IC90 was found to be 23.6 µM.
As for `CCC(C)Nc1ccc(NC(C)CC)cc1` (stereo not drawn), the IC50 was 1.12 µM and the IC90 came to 1.69 µM.
Regarding `CSc1nsc(/C=C/Nc2ccc(O)cc2C)c1C#N`, the IC50 is 27 µM and the IC90 came to 43 µM.
For the compound `CC1(C)Cc2c(cnn2-c2ccccc2)-c2c1c1ccccc1n2CC(O)CCl` (stereo not drawn), the IC50 is 88.2 µM and the concentration for an effect of 90% (IC90) was above 100 µM.
Turning to `CCc1c(C2(O)CCCCC2)[nH]c2ccc(C(F)(F)F)cc12`, the IC50 was 28.4 µM and the IC90 was above 50 µM.
For `CC1(C)Cc2c(C#N)c(N3CCN(C(=O)c4ccccc4)CC3)nc(Cc3ccccc3)c2CO1`, the IC50 is 28.8 µM and the IC90 was above 100 µM.
`c1ccc(-c2nccc(-c3ccc(-n4cnc5ccccc54)cc3)n2)nc1`: the IC50 was 11 µM and the IC90 came out at 16.5 µM.
For `Cc1ccc(C(=O)N2N=C(c3ccc(NS(C)(=O)=O)cc3)CC2c2cccs2)cc1` (stereo not drawn) the same measures were 12.4 µM and 21.2 µM.
On the same counts, the results for `CC1=NN(c2ccc(C)c(C)c2)C(=O)/C1=C\C=C\c1ccc([N+](=O)[O-])o1` are 3.14 µM and 15.5 µM.
